Assays:
Assay type in all cases: in vivo
[1] = system: Puccinia recondita-tritici (PUCCRT); test: Control of wheat brown rust in a field research trial; conditions: for B % DC: component B alone
Protocol: (§1) The Colby equation was used to determine the fungicidal effects expected from the mixtures. (See Colby, S. R. Calculation of the synergistic and antagonistic response of herbicide combinations, Weeds 1967, 15, 20-22.). More specifically, in Tables 1-5, Colby's equation was used to calculate the expected activity of mixtures containing two active ingredients, A and B: Expected=A+B−(A×B/100), wherein
The field trial was conducted at the Dow AgroSciences field station located at Mogi Mirim, Brazil. There were four replicate plots per treatment, with each plot 2×3.5 meters in length and width. The plots were sprayed with the treatments twice, once at growth stage BBCH 33 and again at growth stage BBCH 61-65. Treatments were applied with spray volumes of 150 liters/hectare (L/ha) with an XR flat fan nozzle. Disease development relied on natural inoculum (no artificial infestation). Ten plants per plot were used for each disease severity assessment, with all leaves per plant used for the assessment.

[2] = system: Septoria tritici (SEPTTR); test: Control of wheat leaf blotch, one-day protective (1DP) application, greenhouse; conditions: for B % DC: component B alone; for A % DC: component A alone
Protocol: (§2) For the mixture studies with compound of Formula I: Treatments consisted of fungicides, including a compound of Formula I, tebuconazole, propiconazole, metconazole, and cyproconazole, applied either individually or as two-way mixtures with a compound of Formula I. Technical grades of materials were dissolved in acetone to make stock solutions which were used to perform three-fold dilutions in acetone for each individual fungicide component or for the two-way mixtures. Desired fungicide rates were obtained after mixing dilutions with nine volumes of water containing 110 parts per million (ppm) Triton X-100. The fungicide solutions (10 milliliters (mL)) were applied onto six pots of plants using an automated booth sprayer, which utilized two 6218-1/4 JAUPM spray nozzles operating at 20 pounds per square inch (psi) set at opposing angles to cover both leaf surfaces. All sprayed plants were allowed to air dry prior to further handling. Control plants were sprayed in the same manner with a solvent blank.
(§3) For the one-day protectant experiments, the plants were inoculated with an aqueous spore suspension of the pathogen of interest (either PUCCRT or SEPTTR) and then placed in a dew room from 1-3 days to allow for infection to occur. The plants were then placed in the greenhouse for symptom development to occur. In the case of PUCCRT, symptoms typically appeared in 7-10 days while for SEPTTR symptoms typically appeared in 25-30 days.
(§4) When disease severity reached 50-100% on the control plants, infection levels were assessed on treated plants visually and scored on a scale of 0 to 100 percent. The percentage of disease control was then calculated using the ratio of disease on treated plants relative to control plants.
as §1

[3] = system: Puccinia recondita-tritici (PUCCRT); test: Control of wheat brown rust, three-day curative (3DC) application, greenhouse; conditions: for B % DC: component B alone; for A % DC: component A alone
Protocol: as §2
(§5) For the three-day curative experiments, plants were inoculated with an aqueous spore suspension of the pathogen of interest (either PUCCRT or SEPTTR) and then placed in a dew room from 1-3 days to allow for infection to occur. The plants were removed from the dew room, allowed to dry for approximately one hour (h), sprayed with the test materials formulated as described above, and then placed in the greenhouse for symptom development to occur as described previously.
as §4, §1

[4] = system: Puccinia recondita-tritici (PUCCRT); test: Control of wheat brown rust, one-day protective (1DP) application, greenhouse; conditions: for B % DC: component B alone; for A % DC: component A alone
Protocol: as §2, §3, §4, §1

[5] = system: Septoria tritici (SEPTTR); test: Control of wheat leaf blotch, three-day curative (3DC) application, greenhouse; conditions: for B % DC: component B alone; for A % DC: component A alone
Protocol: as §2, §5, §4, §1

Compound | B % DC ([2]; 0.1 ppm) [%] | B % DC ([3]; 0.4 ppm) [%] | B % DC ([4]; 0.4 ppm) [%] | B % DC ([4]; 1.6 ppm) [%] | B % DC ([4]; 6.3 ppm) [%] | B % DC ([2]; 1.6 ppm) [%] | B % DC ([3]; 1.6 ppm) [%] | B % DC ([4]; 0.1 ppm) [%] | B % DC ([2]; 0.4 ppm) [%] | B % DC ([5]; 0.1 ppm) [%] | also measured
COC(=O)N(OC)c1ccccc1COc1ccn(-c2ccc(Cl)cc2)n1 [Pyraclostrobin, pyraclostrobin] | – | – | – | – | – | – | – | – | – | – | B % DC ([1]; 60 g ai/ha): 85.8%
CC1(C)CCC(Cc2ccc(Cl)cc2)C1(O)Cn1cncn1 (centres unmarked) [Metconazole, 5-[(4-chlorophenyl)methyl]-2,2-dimethyl-1-(1H-1,2,4-triazol-1-ylmethyl)cyclopentanol] | 9 | 4 | 0 | 8 | 87 | – | – | – | – | – | –
CCCC1COC(Cn2cncn2)(c2ccc(Cl)cc2Cl)O1 (centres unmarked) [Propiconazole, 1-[[2-(2,4-dichlorophenyl)-4-propyl-1,3-dioxolan-2-yl]methyl]-1H-1,2,4-triazole] | 0 | – | – | 0 | 0 | 29 | 2 | 0 | – | – | B % DC ([2]; 6.3 ppm): 68%; B % DC ([3]; 6.3 ppm): 93%
CC(C)(C)C(O)(CCc1ccc(Cl)cc1)Cn1cncn1 (stereo not drawn) [Tebuconazole, α-[2-(4-chlorophenyl)ethyl]-α-(1,1-dimethylethyl)-1H-1,2,4-triazole-1-ethanol] | – | 2 | 0 | 18 | 82 | 34 | 87 | 0 | 0 | 23.0 | B % DC ([1]; 140 g ai/ha): 74.3%
CC(C1CC1)C(O)(Cn1cncn1)c1ccc(Cl)cc1 (stereo not drawn) [Cyproconazole, α-(4-chlorophenyl)-α-(1-cyclopropylethyl)-1H-1,2,4-triazole-1-ethanol] | – | 82 | 0 | 27 | 57 | 19 | – | 0 | 9 | 44.0 | B % DC ([1]; 40 g ai/ha): 38%
COc1ccnc(C(=O)N[C@H]2COC(=O)[C@H](Cc3ccccc3)[C@@H](OC(=O)C(C)C)[C@H](C)OC2=O)c1OCOC(=O)C(C)C [Cmpd I, (3S,6S,7R,8R)-8-benzyl-3-(3-((isobutyryloxy)methoxy)-4-methoxypicolinamido)-6-methyl-4,9-dioxo-1,5-dioxonan-7-yl isobutyrate] | – | – | – | – | – | – | – | – | – | – | A % DC ([2]; 0.1 ppm): 7%; A % DC ([2]; 0.4 ppm): 19%; A % DC ([2]; 1.6 ppm): 53%; A % DC ([3]; 0.1 ppm): 0%; A % DC ([3]; 0.4 ppm): 0%; A % DC ([3]; 1.6 ppm): 0%; A % DC ([3]; 6.3 ppm): 0%; A % DC ([4]; 0.4 ppm): 0%; A % DC ([4]; 1.6 ppm): 19.6%; A % DC ([4]; 6.3 ppm): 85.5%; A % DC ([1]; component A alone, 150 g ai/ha): 34.1%; A % DC ([5]; 0.1 ppm): 45.3%; A % DC ([5]; 1.6 ppm): 55.2%; A % DC ([5]; 6.3 ppm): 70.1%

Reference: US9750248B2, “Synergistic fungicidal compositions” (Dow AgroSciences LLC, priority 2012, dated 2017)
